Measurements as given in paper PMC4911353, “Pharmacologic Inhibition of Host Phosphodiesterase-4 Improves Isoniazid-Mediated Clearance of Mycobacterium tuberculosis” (Frontiers in Immunology, 2016).

Test system: Mtb-infected mouse lungs
Test: Genome-wide lung transcriptome (microarray, IPA network/GO analysis) of Mtb-infected mice
Format: in vivo
[1] = Canonical IFN signaling pathway

CCOc1cc([C@@H](CS(C)(=O)=O)N2Cc3cccc(NC(=O)C4CC4)c3C2=O)ccc1OC [CC-11050, N-[2-[(1S)-1-(3-ethoxy-4-methoxyphenyl)-2-(methylsulfonyl)ethyl]-2,3-dihydro-3-oxo-1H-isoindol-4-yl]-(9Cl) cyclopropanecarboxamide]
Number of SDEGs affected by more than 1.5-folds (14 days of treatment (29 upregulated and 18 downregulated)): 47
Number of SDEGs relative to infected untreated animals (14 days of treatment, FDR 5%): 1,277
BAK expression [1]: 0
BAX expression [1]: 0
DRIP150 expression [1]: 0
IFI35 expression [1]: 0
IFIT3 expression [1]: 0
IFNAR2 expression [1]: 0
IFNG expression [1]: 0
IFNGRb expression [1]: -1.115
IRF1 expression [1]: 0
IRF9 expression [1]: 0
JAK2 expression [1]: 0
OAS1 expression [1]: 0
PIAS1 expression [1]: 0
PSMB8 expression [1]: 0
SOCS1 expression [1]: 0
STAT1 expression [1]: 0
STAT2 expression [1]: 0
TAP1 expression [1]: 0
TC-PTP expression [1]: 0
TYK2 expression [1]: 0
ACTB expression (IL17 interaction network): 0
CCL2 expression (IL17 interaction network): 0
CCL5 expression (IL17 interaction network): 0
CCL13 expression (IL17 interaction network): 0
CSF2 expression (IL17 interaction network): 0
EDIL3 expression (IL17 interaction network): 0
ENTPD1 expression (IL17 interaction network): 1.149
HMGB1 expression (IL17 interaction network): -1.135
HSPB8 expression (IL17 interaction network): 1.322
IFNG expression (IL17 interaction network): 0
IL1B expression (IL17 interaction network): 0
IL6 expression (IL17 interaction network): 0
IL10 expression (IL17 interaction network): 0
IL16 expression (IL17 interaction network): 0
IL17A expression (IL17 interaction network): 0
IL17D expression (IL17 interaction network): 0
IL17F expression (IL17 interaction network): -1.184
LTA expression (IL17 interaction network): 0
MMP9 expression (IL17 interaction network): 0
NOS2 expression (IL17 interaction network): 0
PTGS2 expression (IL17 interaction network): 0
RGS13 expression (IL17 interaction network): 0
SELE expression (IL17 interaction network): 0
STAT3 expression (IL17 interaction network): 0
TIMP1 expression (IL17 interaction network): 0
TLR4 expression (IL17 interaction network): 0
TNF expression (IL17 interaction network): 0
TRAF3IP2 expression (IL17 interaction network): 0
TRAF6 expression (IL17 interaction network): 0
VWF expression (IL17 interaction network): 0
ABL1 expression (Lung inflammation network): 0
ACO2 expression (Lung inflammation network): 0
ACTB expression (Lung inflammation network): 0
ADORA2A expression (Lung inflammation network): 0
AGER expression (Lung inflammation network): 0
AGTR1 expression (Lung inflammation network): 0
AHR expression (Lung inflammation network): 0
ALDH2 expression (Lung inflammation network): 0
ANGPT1 expression (Lung inflammation network): 0
ANXA3 expression (Lung inflammation network): 0
ATF3 expression (Lung inflammation network): 0
BAX expression (Lung inflammation network): 0
BID expression (Lung inflammation network): 0
BSG expression (Lung inflammation network): 0
CASP1 expression (Lung inflammation network): 0
CAV1 expression (Lung inflammation network): 0
CBL expression (Lung inflammation network): 0
CCL2 expression (Lung inflammation network): 0
CCL5 expression (Lung inflammation network): 0
CCR4 expression (Lung inflammation network): 0
CCR5 expression (Lung inflammation network): 0
CD4 expression (Lung inflammation network): 0
CD14 expression (Lung inflammation network): 0
CD40LG expression (Lung inflammation network): 0
CD44 expression (Lung inflammation network): 0
CD86 expression (Lung inflammation network): 0
CD200 expression (Lung inflammation network): 0
CIITA expression (Lung inflammation network): 0
CSF2RB expression (Lung inflammation network): 0
CSF2 expression (Lung inflammation network): 0
CSK expression (Lung inflammation network): 0
CTLA4 expression (Lung inflammation network): 0
CTSS expression (Lung inflammation network): 0
CXCR3 expression (Lung inflammation network): 0
CYBB expression (Lung inflammation network): 0
CYLD expression (Lung inflammation network): 0
Ccl6 expression (Lung inflammation network): 0
Cd59a expression (Lung inflammation network): 0
Cxcl15 expression (Lung inflammation network): 0
E2F3 expression (Lung inflammation network): -1.343
EDNRA expression (Lung inflammation network): 0
EDNRB expression (Lung inflammation network): 1.235
EIF2C2 expression (Lung inflammation network): 0
ENTPD1 expression (Lung inflammation network): 1.149
F2RL1 expression (Lung inflammation network): 0
F10 expression (Lung inflammation network): 0
FASLG expression (Lung inflammation network): 0
FBN1 expression (Lung inflammation network): 0
FCGR2B expression (Lung inflammation network): 0
FCGRT expression (Lung inflammation network): 1.165
FOXO3 expression (Lung inflammation network): 1.609
HMGCR expression (Lung inflammation network): 0
HRH1 expression (Lung inflammation network): 0
HTT expression (Lung inflammation network): 0
IFNG expression (Lung inflammation network): 0
IFNGR2 expression (Lung inflammation network): -1.115
IKBKB expression (Lung inflammation network): 0
IKBKE expression (Lung inflammation network): 0
IL1B expression (Lung inflammation network): 0
IL1R1 expression (Lung inflammation network): 0
IL2RG expression (Lung inflammation network): 0
IL4R expression (Lung inflammation network): 0
IL6 expression (Lung inflammation network): 0
IL10 expression (Lung inflammation network): 0
IL12B expression (Lung inflammation network): 0
IL15RA expression (Lung inflammation network): 0
IL16 expression (Lung inflammation network): 0
IL17RB expression (Lung inflammation network): 0
IL18 expression (Lung inflammation network): 0
ITGB6 expression (Lung inflammation network): 0
ITGBL1 expression (Lung inflammation network): 0
ITK expression (Lung inflammation network): 0
KIT expression (Lung inflammation network): 0
LAT expression (Lung inflammation network): 0
LCP2 expression (Lung inflammation network): 0
LGALS1 expression (Lung inflammation network): 0
LIF expression (Lung inflammation network): -1.187
LTA expression (Lung inflammation network): 0
MAP3K14 expression (Lung inflammation network): 0
MARK2 expression (Lung inflammation network): 0
MGAT5 expression (Lung inflammation network): 0
MKL2 expression (Lung inflammation network): 0
MMP9 expression (Lung inflammation network): 0
MMP14 expression (Lung inflammation network): 0
NCF1 expression (Lung inflammation network): 0
NEO1 expression (Lung inflammation network): 0
NFATC2 expression (Lung inflammation network): 0
NFKB1 expression (Lung inflammation network): 0
NLRP3 expression (Lung inflammation network): 0
NOD1 expression (Lung inflammation network): 0
NOD2 expression (Lung inflammation network): 0
NOS2 expression (Lung inflammation network): 0
NQO1 expression (Lung inflammation network): 0
NQO2 expression (Lung inflammation network): 0
NT5E expression (Lung inflammation network): 0
PDE5A expression (Lung inflammation network): 0
PDGFRA expression (Lung inflammation network): 0
PDGFRB expression (Lung inflammation network): 0
PLA2G4A expression (Lung inflammation network): 0
PLAU expression (Lung inflammation network): 0
PTAFR expression (Lung inflammation network): 0
PTEN expression (Lung inflammation network): 1.12
PTGS2 expression (Lung inflammation network): 0
PTPN6 expression (Lung inflammation network): 0
PTPRC expression (Lung inflammation network): 0
RELB expression (Lung inflammation network): 0
S100A4 expression (Lung inflammation network): 0
SELE expression (Lung inflammation network): 0
SFTPA1 expression (Lung inflammation network): 1.126
SFTPD expression (Lung inflammation network): 0
SLC6A2 expression (Lung inflammation network): 0
SOCS1 expression (Lung inflammation network): 0
SPI1 expression (Lung inflammation network): 0
SPP1 expression (Lung inflammation network): 0
STAT1 expression (Lung inflammation network): 0
TFPI expression (Lung inflammation network): 1.241
